In ChEMBL document CHEMBL1151071, “Inhibition of human leukocyte elastase. 5. Inhibition by 6-alkyl substituted penem benzyl esters” (Bioorg Med Chem Lett, 1993) one finds Ki and IC50 data, which are given here for 1 compound.

One may read the Ki as the equilibrium dissociation constant of an inhibitor or competing ligand from its target. The low end stands for a stronger hold on the target, the high end for a looser hold on the target. As usually defined, the IC50 is the concentration that gives 50% inhibition. Low values mean higher potency, high ones lower potency.

Experiment [1] concerns the target T1, Neutrophil elastase (Homo sapiens, UniProt P08246).
T1 sequence (P08246 whole entry): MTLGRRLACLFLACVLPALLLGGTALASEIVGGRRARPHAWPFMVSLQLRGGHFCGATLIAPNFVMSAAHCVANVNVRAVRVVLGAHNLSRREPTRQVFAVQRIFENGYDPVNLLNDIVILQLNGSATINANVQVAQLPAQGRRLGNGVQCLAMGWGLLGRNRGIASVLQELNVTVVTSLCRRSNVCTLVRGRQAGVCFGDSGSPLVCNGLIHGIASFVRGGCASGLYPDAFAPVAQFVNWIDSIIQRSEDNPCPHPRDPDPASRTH
Nature of the experiment: Compound was tested for its inhibitory effect against Human leukocyte elastase (HLE).

Experiment [2] concerns the target T1, Neutrophil elastase. Nature of the experiment: Inhibition of Human leukocyte elastase.

As to `CC1=C(C(=O)OCc2ccccc2)N2C(=O)C[C@H]2S1` (racemic), the Ki on Neutrophil elastase [1] came to 310 µM. On Neutrophil elastase [2], the IC50 was more than 20 µM.
